Biological target: T1, USP8 (Homo sapiens, UniProt P40818)
T1 construct: His (from pFastBac-HT vector); made in house; host or cells: Insect cells (Sf9 or High Five), baculovirus
T1 sequence (P40818 1-1118): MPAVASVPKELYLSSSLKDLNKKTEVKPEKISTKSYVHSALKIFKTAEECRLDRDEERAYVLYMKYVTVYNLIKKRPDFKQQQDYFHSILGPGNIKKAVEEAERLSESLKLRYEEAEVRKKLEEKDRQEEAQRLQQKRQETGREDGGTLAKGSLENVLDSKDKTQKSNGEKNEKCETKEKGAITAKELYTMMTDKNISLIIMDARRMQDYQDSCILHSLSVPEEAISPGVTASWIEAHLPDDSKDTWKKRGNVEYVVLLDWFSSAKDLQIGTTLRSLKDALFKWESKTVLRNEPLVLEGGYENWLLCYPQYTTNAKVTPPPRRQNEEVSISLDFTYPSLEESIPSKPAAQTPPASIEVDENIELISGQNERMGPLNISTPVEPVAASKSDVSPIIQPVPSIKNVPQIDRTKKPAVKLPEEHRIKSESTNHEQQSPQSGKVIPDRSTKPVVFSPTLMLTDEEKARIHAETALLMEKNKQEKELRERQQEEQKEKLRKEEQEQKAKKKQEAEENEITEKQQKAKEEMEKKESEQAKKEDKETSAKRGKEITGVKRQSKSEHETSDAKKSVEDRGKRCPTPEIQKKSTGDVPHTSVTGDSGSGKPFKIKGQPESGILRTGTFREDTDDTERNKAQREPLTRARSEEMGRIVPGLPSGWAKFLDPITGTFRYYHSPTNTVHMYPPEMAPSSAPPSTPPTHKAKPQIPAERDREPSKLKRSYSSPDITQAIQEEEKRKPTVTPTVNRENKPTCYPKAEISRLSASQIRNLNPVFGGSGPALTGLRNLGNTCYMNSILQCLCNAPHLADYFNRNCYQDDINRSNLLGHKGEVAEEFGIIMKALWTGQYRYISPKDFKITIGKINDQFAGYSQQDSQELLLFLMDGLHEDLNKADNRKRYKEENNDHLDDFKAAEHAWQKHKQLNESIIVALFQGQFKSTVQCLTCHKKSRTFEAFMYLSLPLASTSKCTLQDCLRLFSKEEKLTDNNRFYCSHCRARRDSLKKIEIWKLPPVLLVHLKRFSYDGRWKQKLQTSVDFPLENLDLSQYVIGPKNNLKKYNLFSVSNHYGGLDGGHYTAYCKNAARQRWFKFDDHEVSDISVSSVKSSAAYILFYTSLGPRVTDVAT
Test: USP8 activity assay (Ub-AMC)
Format: biochemical
Settings: 400 nM Ub-AMC, 1.36 nM enzyme; compounds tested from 200 µM to 91 nM; unit inferred; read-out: Inhibition of cysteine protease activities: USP8
Text: The cDNA encoding USP8 was obtained by PCR amplification from placenta mRNA. USP8 cDNA was subcloned by PCR into a baculovirus expression vector (pFastBac-HT; Invitrogen). A cDNA encoding a mutated USP8 was generated by mutagenic PCR. The corresponding protein encodes a cysteine to alanine substitution at residue 786. The sequences were ascertained by sequencing of the entire open reading frame. Bacmids encoding […] were generated following DH10bac transposition. The corresponding bacmids were transfected into insect cells (Sf9). Viruses were recovered from culture supernatant and amplified twice. Insect cells (Sf9 or High Five; Invitrogen) were infected for 72 hours. Total cell lysates were harvested and lyzed in lysis buffer (Tris HCl 50 mM pH7.6; 0.75 % NP40; 500 mM NaCl; 10 % glycerol; 1 mM DTT; 10 mM imidazole; Protease Inhibitor Cocktail; AEBSF 20 µg.ml^-1; Aprotinin 10 µg.ml^-1). Proteins were affinity purified on metal affinity resins (Talon Metal affinity resin; BD Biosciences). Bound materials were extensively washed in wash buffer (50 mM Sodium Phosphate pH 7.0; 300 mM NaCl; 10 mM imidazole; 0.5% Triton X-1 00; 10% glycerol) and eluted from the resin in 250 mM imidazole-containing wash buffer. Proteins were dialyzed in dialysis buffer (Tris HCl pH 7.6 20 mM; NaCl 200 mM; DTT 1 mM; EDTA 1 mM; 10% Glycerol). Proteins purifications were analyzed on 4-12% NuPAGE (Invitrogen).
USP8 was diluted in USP buffer (50 mM Tris HCl; 0.5 mM EDTA; 5 mM DTT; 0.01% Triton X-100; Bovine Serum Albumin 0.05 mg.ml^-1 pH8.8). Compounds stocks (100 mM) were stored at -20°C in DMSO. Compounds were tested at different concentrations: from 200 µM to 91 nM.
Reactions were performed as duplicates in Black LJL 96 well plates (HE microplates; Molecular Devices; 20 µl final reaction volume). The substrate concentration for USP8 was 400 nM Ub-AMC (Boston Biochem). The concentration of the enzyme (USP8) in specificity assays was 1.36 nM. The concentrations were determined in order to perform specificity assays under initial velocities at fixed substrate concentration. Compounds were pre-incubated with enzymes for 30 minutes at 25°C. Reactions were initiated by addition of substrate to the plates containing the enzymes (+/- compounds) diluted in assay buffer. Reactions were incubated for 60 minutes at 37°C. Reactions were stopped by adding acetic acid (100 mM final). Readings were performed on a Pherastar Fluorescent Reader (BMG). λ Emission 380 nm : λ Excitation = 460 nm. Data (mean values +/- standard deviation) were analyzed as % of control (no compound) and plotted as percentage versus the Log of the compound concentration using GraphPad (Prism). Data were fitted to a sigmoidal model (variable slope).

| IC50 [µM] | SMILES |
| --- | --- |
| > 200 | CC(=O)C1=C(O)C(=O)N(CCc2ccc(Cl)cc2Cl)C1c1ccc(Br)cc1 (stereo not shown) [Example 47, 4-Acetyl-5-(4-bromophenyl)-1-[2-(2,4-dichlorophenyl)-ethyl]-3-hydroxy-1,5-dihydro-pyrrol-2-one] |
| > 200 | CC(=O)C1=C(O)C(=O)N(CCc2ccc(Cl)c(Cl)c2)C1c1ccc(Br)cc1 (stereo not shown) [Example 28, 4-acetyl-5-(4-bromo-phenyl)-1-[2-(3,4-dichloro-phenyl)-ethyl]-3-hydroxy-1,5-dihydro-pyrrol-2-one] |
| > 200 | COc1cccc(CCN2C(=O)C(O)=C(C(C)=O)C2c2ccc(Br)cc2)c1 (stereo not shown) [Example 30, 4-acetyl-5-(4-bromo-phenyl)-3-hydroxy-1-[2-(3-methoxyphenyl)-ethyl]-1,5-dihydro-pyrrol-2-one] |
| > 200 | CC(=O)C1=C(O)C(=O)N(CCc2ccc(F)cc2)C1c1ccc(Br)cc1 (stereo not shown) [Example 33, 4-acetyl-5-(4-bromo-phenyl)-3-hydroxy-1-[2-(4-fluorophenyl)-ethyl]-1,5-dihydro-pyrrol-2-one] |
| > 200 | CC(=O)C1=C(O)C(=O)N(CCc2ccc(Br)cc2)C1c1ccc(Br)cc1 (stereo not shown) [Example 26, 4-acetyl-5-(4-bromo-phenyl)-1-[2-(4-bromo-phenyl)-ethyl]-3-hydroxy-1,5-dihydro-pyrrol-2-one] |
| > 200 | CC(=O)C1=C(O)C(=O)N(CCc2ccccc2)C1c1ccc2c(c1)OCO2 (stereo not shown) [Example 37, 4-acetyl-5-benzo[1,3]dioxol-5-yl-3-hydroxy-1-phenethyl-1,5-dihydro-pyrrol-2-one] |
| > 200 | CC(=O)C1=C(O)C(=O)N(CCc2ccc(Cl)cc2)C1c1ccc(Br)cc1 (stereo not shown) [Example 25, 4-acetyl-5-(4-bromo-phenyl)-1-[2-(4-chloro-phenyl)-ethyl]-3-hydroxy-1,5-dihydro-pyrrol-2-one] |
| > 200 | CC(=O)C1=C(O)C(=O)N(CCc2ccc(Br)cc2)C1c1ccc(Cl)cc1 (stereo not shown) [Example 45, 4-Acetyl-5-(4-chlorophenyl)-1-[2-(4-bromophenyl)-ethyl]-3-hydroxy-1,5-dihydro-pyrrol-2-one] |
| > 200 | CC(=O)C1=C(O)C(=O)N(CCc2ccc(Cl)cc2)C1c1ccc(Cl)cc1 (stereo not shown) [Example 46, 4-Acetyl-5-(4-chlorophenyl)-1-[2-(4-chlorophenyl)-ethyl]-3-hydroxy-1,5-dihydro-pyrrol-2-one] |
| > 200 | CCOc1ccc(CCN2C(=O)C(O)=C(C(C)=O)C2c2ccc(Br)cc2)cc1 (stereo not shown) [Example 34, 4-acetyl-5-(4-bromo-phenyl)-3-hydroxy-1-[2-(4-ethoxy-phenyl)-ethyl]-1,5-dihydro-pyrrol-2-one] |
| > 200 | COc1ccc(CCN2C(=O)C(O)=C(C(C)=O)C2c2ccc(Br)cc2)cc1 (stereo not shown) [Example 32, 4-acetyl-5-(4-bromo-phenyl)-3-hydroxy-1-[2-(4-methoxyphenyl)-ethyl]-1,5-dihydro-pyrrol-2-one] |
| > 200 | CC(=O)C1=C(O)C(=O)N(CCc2ccccc2)C1c1cccnc1Cl (stereo not shown) [Example 42, 4-acetyl-5-(2-chloro-pyridin-3-yl)-3-hydroxy-1-phenethyl-1,5-dihydro-pyrrol-2-one] |
| > 200 | CC(=O)C1=C(O)C(=O)N(CCc2ccccc2)C1c1ccc(Br)c(Br)c1 (stereo not shown) [Example 41, 4-acetyl-5-(3,4-dibromo-phenyl)-3-hydroxy-1-phenethyl-1,5-dihydro-pyrrol-2-one] |
